According to US20230191357A1, “SYSTEM AND METHOD FOR ENHANCING THE REACTION POTENTIAL OF PRODUCTS GENERATED FROM IONIZATION, PHOTON-ENHANCED THERMIONIC EMISSION, MULTI PHOTON ABSORPTION, PHOTOOXIDATION, PHOTOCATALYTIC, AND PHOTOCHEMICAL REACTIONS WITH OXIDIZING AGENTS” (Bis Science LLC, priority 2021, published 2023):
Values joined by “and” are separate entries in the source; they are usually repeats but may differ in a detail not shown here. Identical values can stand only once.

What was measured:
Type in all cases: cell-based
[1] = tested on: Staphylococcus aureus ATCC 6538; assay: Hydrogen peroxide exposed or not exposed to photons applied to inoculated target microbes; conditions: contact time 5 Minutes; for CFU/ml: single replicates
Description: The test substances were hydrogen peroxide at 1 ppm and at 0.3%, which were exposed or not exposed to photons of 0.01 nm through 845 nm and applied to target of microbes, which included a carrier for the inoculated target microbes such as agar with a viable bacteria concentration of Staphylococcus aureus ATCC 6538. The control for this test was a similar inoculated plate and it was treated in the same manor but there was no application of photons to the oxidizing agent.

[2] = tested on: viable cells (microbial counts); assay: Independent lab testing of the HVAC antimicrobial system utilizing Photon Augmented Oxidizing Agents (coupons, ambient air); conditions: 1 part per million, 5 minute contact time with the ambient air
Description: All test samples were compared against the Control provided. (Independent lab testing of the HVAC antimicrobial system utilizing Photon Augmented Oxidizing Agents).

E. coli ATCC 11229 = assay: Carrier test of residual antimicrobial effect, 4 weeks post photon exposure; conditions: contact time 10 Minutes, 4 weeks post exposure to radiation

## OO [1 PPM No photon emission, hydrogen peroxide]
[1]
  Average CFU/ml: 4.05E+06 CFU/ml
  Average Log10 Reduction Compared to Controls: No Reduction
  Average Percent Reduction Compared to Controls: No Reduction
  CFU/ml: 4.10E+06 CFU/ml

## OO [0.3% No photon emission, hydrogen peroxide]
[1]
  Average CFU/ml: 4.05E+06 CFU/ml
  Average Log10 Reduction Compared to Controls: No Reduction
  Average Percent Reduction Compared to Controls: No Reduction
  CFU/ml: 4.10E+06 CFU/ml and 4.00E+06 CFU/ml

## OO [standard hydrogen peroxide, hydrogen peroxide]
[2]
  microbial reduction: little or no microbial reduction

## OO [Control Substance, hydrogen peroxide]
E. coli ATCC 11229
  Average Log10 Reduction Compared to Controls: 0.11 Log10
  Average Percent Reduction Compared to Controls: 23.08%
  CFU/Carrier: 3.00E+04 CFU/Carrier
E. coli ATCC 11229; listed as control substance
  Average Percent Reduction Compared to Controls: 23.08%
